The compounds below were run against T1, FGFR3 protein (Homo sapiens, UniProt P22607) (assay: FGFR3 enzyme assay (KinEASE-TK HTRF kinase assay)). Conditions: 0.25 nM enzyme, ATP at Km, 15 min pre-incubation on ice, 30 min at 30° C.
T1 construct: purchased Reaction Biology 1068
Format: biochemical
Procedure: FGFR3 and FGFR1 Enzyme Assay
Enzyme activity was monitored using the KinEASE™-TK Assay Kit (Cisflio, Cat. No. 62TK0PEC) according to the manufacturer's instructions. All assays were performed at the respective KmATP for each kinase in KinEASE™ Kinase Buffer.
Titration of compounds were performed in a half-log manner in 100% dimethyl sulfoxide (DMSO) starting at 1 uM. Prior to the initiation of the reaction by adenosine triphosphate (ATP), FGFR1 protein and compounds were pre-incubated for 15 minutes at room temperature, and FGFR3 protein and compounds were pre-incubated on ice for 15 minutes. Reactions proceeded for 30 min at 30° C. Plates were quenched by the addition of the Anti-TK cryptate antibody/Streptavidin-XL665 mixture.
Ratios were converted to a percent of control (POC) using a ratiometric emission factor. One hundred POC was determined using no test compound, and 0 POC was determined in the presence of 1 uM of an appropriate control inhibitor.

T1 sequence (P22607 23-806): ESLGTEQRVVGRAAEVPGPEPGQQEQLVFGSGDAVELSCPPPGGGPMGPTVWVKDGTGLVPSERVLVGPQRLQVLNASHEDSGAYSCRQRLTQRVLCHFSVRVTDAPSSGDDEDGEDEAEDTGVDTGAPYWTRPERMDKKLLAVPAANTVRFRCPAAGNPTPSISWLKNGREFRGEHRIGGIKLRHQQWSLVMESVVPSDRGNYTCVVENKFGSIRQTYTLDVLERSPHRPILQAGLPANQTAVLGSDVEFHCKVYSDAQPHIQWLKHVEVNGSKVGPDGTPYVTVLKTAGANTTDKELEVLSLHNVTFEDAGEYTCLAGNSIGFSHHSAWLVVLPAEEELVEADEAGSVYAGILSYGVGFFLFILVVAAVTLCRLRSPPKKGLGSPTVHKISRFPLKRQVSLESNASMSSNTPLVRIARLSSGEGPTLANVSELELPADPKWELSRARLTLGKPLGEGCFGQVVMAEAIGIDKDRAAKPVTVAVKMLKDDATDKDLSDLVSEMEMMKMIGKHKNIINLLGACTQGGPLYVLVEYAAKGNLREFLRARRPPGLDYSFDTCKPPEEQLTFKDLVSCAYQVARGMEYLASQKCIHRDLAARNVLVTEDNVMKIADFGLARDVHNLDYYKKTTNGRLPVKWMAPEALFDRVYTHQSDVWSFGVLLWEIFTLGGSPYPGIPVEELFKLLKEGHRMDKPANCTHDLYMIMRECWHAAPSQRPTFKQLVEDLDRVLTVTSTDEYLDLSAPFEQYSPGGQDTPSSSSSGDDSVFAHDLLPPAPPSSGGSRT

| IC50 [µM] | SMILES |
| --- | --- |
| < 0.1 | Cc1c(-c2cc(O[C@H](C)c3nncn3CC(F)(F)F)n3c(C#N)cnc3c2)nnn1C1CCN(C#N)CC1 [Example 274, 7-[1-(1-Cyano-4-piperidyl)-5-methyl-triazol-4-yl]-5-[(1R)-1-[4-(2,2,2-trifluoroethyl)-1,2,4-triazol-3-yl]ethoxy]imidazo [1,2-a]pyridine-3-carbonitrile] |
| < 0.05 | Cc1nc([C@@H](C)Oc2cc(-c3nnn(C4CCN(C#N)CC4)c3C)cn3ncc(C#N)c23)cs1 [Example 291, 6-[1-(1-Cyano-4-piperidyl)-5-methyl-triazol-4-yl]-4-[(1R)-1-(2-methylthiazol-4-yl)ethoxy]pyrazolo [1,5-a]pyridine-3-carbonitrile] |
| < 0.05 | Cc1c(-c2cc(O[C@H](C)c3ccn(C)n3)c3c(C#N)cnn3c2)nnn1C1CCN(C#N)CC1 [Example 292, 6-[1-(1-Cyano-4-piperidyl)-5-methyl-triazol-4-yl]-4-[(1R)-1-(1-methylpyrazol-3-yl)ethoxy]pyrazolo [1,5-a]pyridine-3-carbonitrile] |
| < 0.05 | Cc1c(-c2cc(O[C@H](C)c3ccccc3C#N)c3c(Cl)cnn3c2)cnn1C1CCN(C#N)CC1 [Example 297, 4-[4-[3-Chloro-4-[(1R)-1-(2-cyanophenyl)ethoxy]pyrazolo[1,5-a]pyridin-6-yl]-5-methyl-pyrazol-1-yl]piperidine-1-carbonitrile] |

Source: US12209086B2, “FGFR3 inhibitor compounds” (ELI LILLY AND COMPANY, priority 2021, dated 2025)
